“Also recorded” adds a separate entry of the source.
How the values were obtained:
MYXV = experiment: microbe, parasite or virus in culture; assay type: cell-based, myxoma virus
B16F10 cells = assay type: cell-based, murine; conditions: 24 hours
A9F1 cells = assay type: cell-based

Compound	arginine concentration at which maximal viral replication occurs (MYXV)	EC50 (MYXV; Myxoma virus, 24 h, read-out: EC50 of exogenous arginine for production of new infectious MYXV progeny)	rescue of MYXV replication by supplement (B16F10 cells)	rescue of cytostasis by supplement (A9F1 cells)
N=C(N)NCCC[C@H](N)C(=O)O [arginine]	at least 100 μM	~50 µM		
NC(=O)NCCC[C@H](N)C(=O)O [citrulline, L-Citrulline]			support myxoma virus replication; also recorded: could also rescue MYXV replication	could not be rescued
